Test results published in a compilation of properties of binary mixtures (doi:10.1016/j.fluid.2021.113175).

Test: xn = mol fraction of the nth substance listed
Conditions: 100 kPa

COP(=O)([O-])OC.C[N+]1(CCO)CCCC1 + CCO
viscosity [mPa·s]
Conditions	293.15 K	298.15 K	303.15 K	308.15 K	313.15 K	318.15 K	323.15 K	328.15 K	333.15 K	338.15 K
x1 = 0.0561	2.69	2.27	–	–	1.54	1.33	1.17	1.04	0.92	0.82
x1 = 0.1077	–	4.39	3.88	–	3.23	2.94	2.69	2.47	2.28	2.1
x1 = 0.1523	7.31	6.71	6.24	–	5.31	4.98	4.66	4.37	4.09	3.85
x1 = 0.2079	–	10.91	–	8.65	7.87	–	6.44	–	5.33	4.93
x1 = 0.2537	19.2	16.9	14.81	13.08	11.56	–	9.55	8.62	8	7.27
x1 = 0.3084	–	27.7	–	–	18.5	16.22	14.35	–	11.68	10.55
x1 = 0.4033	–	48.5	40.2	34.3	30	–	22.9	20.3	–	–
x1 = 0.5077	–	98.2	–	64.3	53.4	–	–	33.1	28	–
x1 = 0.6042	220	174	133.8	108.1	87.6	72.1	–	–	42	–
x1 = 0.7053	–	–	219	167	128.5	102.3	82.6	66.1	–	43.3
x1 = 0.8055	670	–	346	257	196	152.8	120.7	95	76.3	–
x1 = 0.9053	1030	722	512	374	–	212	163	128.6	102.4	80.5
x1 = 1	1452	981	687	496	366	–	210	162	127.5	96.7

CCO + CC[N+]1(C)CCCC1.COP(=O)([O-])OC
x2 = 0
Conditions	viscosity [mPa·s]
293.15 K	1.19
298.15 K	1.08
303.15 K	0.98
313.15 K	0.82
323.15 K	0.69
338.15 K	0.54

CCO + COP(=O)([O-])OC.C[N+]1(CCO)CCCC1
x2 = 0
Conditions	viscosity [mPa·s]
293.15 K	1.19
303.15 K	0.98
308.15 K	0.9
313.15 K	0.82
318.15 K	0.75
323.15 K	0.69
328.15 K	0.63
333.15 K	0.58
338.15 K	0.54
